Measured values published in PMC467089, “Click estradiol dimers with novel aromatic bridging units: synthesis and anticancer evaluation” (Journal of Enzyme Inhibition and Medicinal Chemistry, 2024).

Experiments:
[1] = system: CCRF-CEM (childhood T-cell acute lymphoblastic leukaemia); assay: MTS cytotoxicity assay, CCRF-CEM; format: cell-based; settings: Homo sapiens, 72 h, read-out: IC50 cytotoxic activity CCRF-CEM
Method: (§1) The p53 deficient variant, HCT116p53−/−, was purchased from Horizon Discovery (Cambridge, UK). The daunorubicin-resistant CCRF-CEM cell line CEM-DNR bulk and paclitaxel-resistant K562-TAX sublines were developed in-house by exposing parental cell lines to escalating concentrations of daunorubicin and paclitaxel, respectively. Cells were maintained in the recommended culture medium (Sigma-Aldrich, St. Louis, MO) supplemented with 10% foetal calf serum, 100 U/mL penicillin, and 100 μg/mL streptomycin. The HUVEC line was obtained from PromoCell (Heidelberg, Germany). The cells were cultured in endothelial cell growth medium with SupplementMix for endothelial cells (PromoCell, Heidelberg, Germany). The incubation conditions were a humidified atmosphere of 95% air and 5% CO2 at 37 °C[10]. Cells were seeded in 384-well plates and after overnight incubation treated with compounds. All tested compounds were dissolved in 100% DMSO, and fourfold serial dilutions were performed using an Echo550 liquid handler (Labcyte, San Jose, CA). The experiments were performed in technical duplicates and three biological replicates. Cells were incubated with compounds for 72 h and thereafter 5 μL of MTS reagent was added to each well.

[2] = system: CEM-DNR (daunorubicin resistant variant of CCRF-CEM); assay: MTS cytotoxicity assay, CEM-DNR; format: cell-based, human; settings: for IC50: Homo sapiens, CEM-DNR, 72 h, read-out: IC50 cytotoxic activity CEM-DNR
Method: as §1

[3] = system: K562 (chronic myelogenous leukaemia); assay: MTS cytotoxicity assay, K562; format: cell-based; settings: Homo sapiens, K562, 72 h, read-out: IC50 cytotoxic activity K562
Method: as §1

[4] = system: K562-TAX (paclitaxel-resistant variant of K562); assay: MTS cytotoxicity assay, K562-TAX; format: cell-based, human; settings: for IC50: Homo sapiens, K562-Tax, 72 h, read-out: IC50 cytotoxic activity K562-TAX
Method: as §1

[5] = system: A549 (lung adenocarcinoma); assay: MTS cytotoxicity assay, A549; format: cell-based, human; settings: Homo sapiens, A549, 72 h, read-out: IC50 cytotoxic activity A549
Method: as §1

[6] = system: HCT116 (colorectal adenocarcinoma); assay: MTS cytotoxicity assay, HCT116; format: cell-based; settings: Homo sapiens, HCT-116, 72 h, read-out: IC50 cytotoxic activity HCT116
Method: as §1

[7] = system: HCT116p53−/− (p53 gene null variant of HCT116); assay: MTS cytotoxicity assay, HCT116p53−/−; format: cell-based; settings: Homo sapiens, HCT-116, 72 h, read-out: IC50 cytotoxic activity HCT116p53-
Method: as §1

U2OS (osteosarcoma) = assay: MTS cytotoxicity assay, U2OS; format: cell-based, human; settings: Homo sapiens, U2OS, 72 h, read-out: IC50 cytotoxic activity U2OS
Method: as §1

[8] = MTS cytotoxicity assay, MRC-5; format: cell-based; settings: human
Method: as §1

[9] = MTS cytotoxicity assay, BJ; format: cell-based; settings: human
Method: as §1

[10] = MTS cytotoxicity assay, HUVEC; format: cell-based; settings: human
Method: as §1

porcine brain tubulin = molecular target: T1, porcine brain tubulin (Sus scrofa, UniProt P02550+P02554); assay: Tubulin polymerisation assay; format: biochemical; settings: 10 μmol/L, Vmax relative to DMSO
T1 construct: purchased Cytoskeleton, Denver, CO; host or cells: porcine brain (tissue-purified)
T1 sequence (P02550 whole entry): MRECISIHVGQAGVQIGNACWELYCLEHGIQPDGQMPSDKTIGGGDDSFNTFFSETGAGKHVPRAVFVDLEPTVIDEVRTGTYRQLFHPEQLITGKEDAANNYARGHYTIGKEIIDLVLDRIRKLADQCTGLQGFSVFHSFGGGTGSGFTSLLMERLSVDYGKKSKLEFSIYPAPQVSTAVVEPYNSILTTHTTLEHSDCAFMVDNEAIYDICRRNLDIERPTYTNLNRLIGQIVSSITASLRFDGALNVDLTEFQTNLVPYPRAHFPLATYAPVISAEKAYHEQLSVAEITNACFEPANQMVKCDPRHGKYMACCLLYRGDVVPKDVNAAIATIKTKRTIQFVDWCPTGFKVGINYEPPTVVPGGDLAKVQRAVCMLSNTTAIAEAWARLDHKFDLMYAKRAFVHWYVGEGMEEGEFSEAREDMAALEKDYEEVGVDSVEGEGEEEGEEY
T1 sequence (P02554 whole entry): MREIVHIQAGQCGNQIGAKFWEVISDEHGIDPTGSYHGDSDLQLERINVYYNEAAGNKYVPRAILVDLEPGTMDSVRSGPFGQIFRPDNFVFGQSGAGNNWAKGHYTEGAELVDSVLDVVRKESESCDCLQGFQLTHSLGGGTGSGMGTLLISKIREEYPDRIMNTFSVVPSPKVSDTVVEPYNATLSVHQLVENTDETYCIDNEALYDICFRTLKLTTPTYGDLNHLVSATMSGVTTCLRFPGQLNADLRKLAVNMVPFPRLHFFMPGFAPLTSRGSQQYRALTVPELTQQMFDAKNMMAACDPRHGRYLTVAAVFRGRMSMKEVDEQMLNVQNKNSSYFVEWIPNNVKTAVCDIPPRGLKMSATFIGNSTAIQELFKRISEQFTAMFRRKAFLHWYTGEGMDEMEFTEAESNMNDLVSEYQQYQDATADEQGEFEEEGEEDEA
Method: Tubulin polymerisation assay kit (Cytoskeleton, Denver, CO) was used according to the manufacturer’s instructions. Polymerisation of porcine brain tubulin (>99% purity) was measured using an EnVision Multilabel Plate Reader (PerkinElmer, Waltham, MA) at 37 °C, in the presence of either 10 μmol/L test compounds or DMSO. Maximum polymerisation velocity (Vmax) was calculated from the polymerisation curves. Data visualisation was performed in OriginPro 2018b (b9.5.5.409) software (OriginLab Corporation, Northampton, MA)[10].

CCRF-CEM lymphoblasts [11] = assay: Cell cycle analysis by flow cytometry (propidium iodide); format: cell-based, human
Method: (§2) To further characterise the mode of action of studied compounds, we analysed the cell cycle profile of CCRF-CEM cells treated with compounds for 24 h. […] The compounds ED1–ED9 and ED12 induced arrest in G2/M phase of the cell cycle (Figure 2(A)). To differentiate between G2 block and mitotic arrest, we used phospho-histone H3 (Ser10) mitotic marker (Figure 2(B)). […] Generally, dimers induced a dose-dependent increase of sub G1 cell population with fragmented DNA except for ED2 and ED4 (Figure 2(C)). […] To assess the proliferation of treated cells, they were subjected to 5-bromo-2-deoxyuridine (BrDU) labelling. […] Analogously, changes in 5-bromouridine (BrU) incorporation were examined to monitor overall RNA synthesis.
(§3) Treated CCRF-CEM cells were harvested, washed with ice-cold phosphate-buffered saline (PBS), fixed in cold 70% ethanol and stored at −20 °C. Prior to analysis, fixed cells were permeabilised with 0.25% Triton X-100 in PBS for 15 min, blocked in 1% bovine serum, and incubated with anti-phospho-Histone H3 (Ser^10) antibody (Merck Millipore, Burlington, MA). Subsequently, the cells were treated with 50 μg/mL RNAse, stained with propidium iodide and analysed by FACSCalibur (Becton Dickinson, Franklin Lakes, NJ) flow cytometer at 488 nm. Cell cycle distribution (G1, S, and G2/M) was analysed using ModFitLT software (Verity, Topsham, ME), and reflects only viable population prior to the fixing procedure. Particles with lower propidium iodide content than G1 phase cells were classified as non-viable cells with fragmented DNA. Flow cytometry data visualisation was performed using OriginPro 2018b (b9.5.5.409) software (OriginLab Corporation, Northampton, MA)[10].

CCRF-CEM lymphoblasts [12] = assay: Phospho-histone H3 (Ser10) mitotic marker, flow cytometry; format: cell-based, human
Method: as §2, §3

CCRF-CEM lymphoblasts [13] = assay: BrDU incorporation analysis (DNA synthesis); format: cell-based, human
Method: as §2
Thirty minutes before harvesting, cells were pulse-labelled with 10 μM BrDU. After overnight fixation in ice-cold 70% ethanol, cells were resuspended in 2 M HCl for 30 min at room temperature (RT), then washed with 0.1 M Na2B4O7 and blocked with PBS containing 0.5% Tween-20 and 1% BSA. BrDU incorporation was analysed using anti-BrdU antibody clone MoBu-1 (Exbio, Vestec, Czech Republic) and a secondary anti-mouse-FITC antibody (Sigma-Aldrich, St. Louis, MO). Cells were washed with PBS and stained with 0.1 mg/mL propidium iodide and 0.5 mg/mL RNase A for 1 h at RT and analysed by flow cytometry using a 488 nm single beam laser (FACSCalibur, Becton Dickinson, Franklin Lakes, NJ). The percentage of cells with incorporated BrDU was analysed using CellQuest software.

CCRF-CEM lymphoblasts [14] = assay: BrU incorporation analysis (RNA synthesis); format: cell-based, human
Method: as §2
Prior to the trypsinisation, cells were treated with 1 mM BrU for 30 min. Subsequently, the cells were fixed in 1% paraformaldehyde with 0.05% of NP-40 for 15 min at RT and stored overnight at 4 °C. Fixed cells were washed with 1% glycine in PBS and stained with primary anti-BrdU antibody clone MoBu-1 crossreacting with BrU (Exbio, Vestec, Czech Republic) for 30 min at RT, washed with PBS and labelled with secondary anti-mouse-FITC antibody (Sigma-Aldrich, St. Louis, MO). Following 1-h incubation in 1% paraformaldehyde containing 0.05% NP-40, cells were stained with propidium iodide (0.1 mg/mL) and treated with RNase A (0.5 mg/mL) for 1 h at RT. The percentage of BrU positive cells was quantified using CellQuest software.

Structure (SMILES) | IC50 [1] | IC50 [2] | IC50 [3] | IC50 [4] | IC50 [5] | IC50 [6] | IC50 [7] | IC50 (U2OS (osteosarcoma)) | IC50 at 72 h [8] | IC50 at 72 h [9] | IC50 at 72 h [10] | inhibitory activity against tubulin polymerisation (in words) (porcine brain tubulin) | <G1 (sub-G1, fragmented DNA), % of positive cells (CCRF-CEM lymphoblasts [11]; 1×IC50, 24 h) | >G2/M (polyploidy), % of positive cells (CCRF-CEM lymphoblasts [11]; 1×IC50, 24 h) | G0/G1, % of positive cells (CCRF-CEM lymphoblasts [11]; 1×IC50, 24 h) | G2/M, % of positive cells (CCRF-CEM lymphoblasts [11]; 1×IC50, 24 h) | S, % of positive cells (CCRF-CEM lymphoblasts [11]; 1×IC50, 24 h) | <G1 (sub-G1, fragmented DNA), % of positive cells (CCRF-CEM lymphoblasts [11]; 5×IC50, 24 h) | >G2/M (polyploidy), % of positive cells (CCRF-CEM lymphoblasts [11]; 5×IC50, 24 h) | G0/G1, % of positive cells (CCRF-CEM lymphoblasts [11]; 5×IC50, 24 h) | other results
CC(=O)Oc1c(Cn2cc([C@]3(O)CC[C@H]4[C@@H]5CCc6cc(O)ccc6[C@H]5CC[C@@]43C)nn2)cc(C)cc1Cn1cc([C@]2(O)CC[C@H]3[C@@H]4CCc5cc(O)ccc5[C@H]4CC[C@@]32C)nn1 [ED7, 2,6-Bis({4-[(17β)-3,17-dihydroxyestra-1,3,5(10)-trien-17-yl]-1H-1,2,3-triazol-1-yl}methyl)-4-methylphenyl acetate] | 1290 ± 130 nM | > 50000 nM | 770 ± 130 nM | > 50000 nM | > 50000 nM | 1610 ± 87 nM | 1790 ± 170 nM | 3860 ± 1390 nM | > 50000 nM | > 50000 nM | 14 ± 2 nM | comparable or better inhibitory activity | 40.74% | 7.12% | 32.36% | 33.76% | 33.88% | 45.33% | 7.43% | 32.48% | G2/M, % of positive cells (CCRF-CEM lymphoblasts [11]; 5×IC50, 24 h): 32.87%; S, % of positive cells (CCRF-CEM lymphoblasts [11]; 5×IC50, 24 h): 34.65%; pH3Ser10, % of positive cells (CCRF-CEM lymphoblasts [12]; 1×IC50, 24 h): 0.68%; pH3Ser10, % of positive cells (CCRF-CEM lymphoblasts [12]; 5×IC50, 24 h): 11.22%; BrDU, % of positive cells (CCRF-CEM lymphoblasts [13]; 1×IC50, 24 h): 9.50%; BrDU, % of positive cells (CCRF-CEM lymphoblasts [13]; 5×IC50, 24 h): 5.65%; BrU, % of positive cells (CCRF-CEM lymphoblasts [14]; 1×IC50, 24 h): 52.67%; BrU, % of positive cells (CCRF-CEM lymphoblasts [14]; 5×IC50, 24 h): 27.20%
COc1c(Cn2cc([C@]3(O)CC[C@H]4[C@@H]5CCc6cc(O)ccc6[C@H]5CC[C@@]43C)nn2)cc(C)cc1Cn1cc([C@]2(O)CC[C@H]3[C@@H]4CCc5cc(O)ccc5[C@H]4CC[C@@]32C)nn1 [ED8, (17β,17′β)-17,17′-[(2-Methoxy-5-methylbenzene-1,3-diyl)bis(methanediyl-1H-1,2,3-triazole-1,4-diyl)]bisestra-1,3,5(10)-triene-3,17-diol] | 1380 ± 180 nM | 3440 ± 690 nM | 690 ± 150 nM | 13100 ± 3690 nM | > 50000 nM | 1770 ± 160 nM | 2010 ± 120 nM | 6930 ± 1160 nM | > 50000 nM | > 50000 nM | 79 ± 48 nM | comparable or better inhibitory activity | 16.29% | 7.25% | 34.59% | 31.94% | 33.47% | 24.86% | 10.51% | 4.71% | IC50 cytotoxic activity CEM-DNR [2]: maintained its activity; IC50 cytotoxic activity K562-TAX [4]: sensitive; G2/M, % of positive cells (CCRF-CEM lymphoblasts [11]; 5×IC50, 24 h): 78.93%; S, % of positive cells (CCRF-CEM lymphoblasts [11]; 5×IC50, 24 h): 16.36%; pH3Ser10, % of positive cells (CCRF-CEM lymphoblasts [12]; 1×IC50, 24 h): 11.01%; pH3Ser10, % of positive cells (CCRF-CEM lymphoblasts [12]; 5×IC50, 24 h): 0.63%; BrDU, % of positive cells (CCRF-CEM lymphoblasts [13]; 1×IC50, 24 h): 45.06%; BrDU, % of positive cells (CCRF-CEM lymphoblasts [13]; 5×IC50, 24 h): 5.15%; BrU, % of positive cells (CCRF-CEM lymphoblasts [14]; 1×IC50, 24 h): 59.19%; BrU, % of positive cells (CCRF-CEM lymphoblasts [14]; 5×IC50, 24 h): 3.11%
Cc1cc(C)c(Cn2cc([C@]3(O)CC[C@H]4[C@@H]5CCc6cc(O)ccc6[C@H]5CC[C@@]43C)nn2)cc1Cn1cc([C@]2(O)CC[C@H]3[C@@H]4CCc5cc(O)ccc5[C@H]4CC[C@@]32C)nn1 [ED9, 17,17′-[(4,6-Dimethyl-1,3-phenylene)bis(methylene-1H-1,2,3-triazole-1,4-diyl)]di[estra-1,3,5(10)-triene-3,17β-diol]] | 1690 ± 57 nM | > 50000 nM | 1270 ± 120 nM | > 50000 nM | > 50000 nM | 2020 ± 300 nM | 1960 ± 260 nM | 5260 ± 1690 nM | 3200 ± 890 nM | > 50000 nM | 38 ± 11 nM | comparable or better inhibitory activity | 3.92% | 13.86% | 38.18% | 23.92% | 37.90% | 11.48% | 17.77% | 4.31% | G2/M, % of positive cells (CCRF-CEM lymphoblasts [11]; 5×IC50, 24 h): 68.38%; S, % of positive cells (CCRF-CEM lymphoblasts [11]; 5×IC50, 24 h): 27.32%; pH3Ser10, % of positive cells (CCRF-CEM lymphoblasts [12]; 1×IC50, 24 h): 8.42%; pH3Ser10, % of positive cells (CCRF-CEM lymphoblasts [12]; 5×IC50, 24 h): 41.35%; BrDU, % of positive cells (CCRF-CEM lymphoblasts [13]; 1×IC50, 24 h): 46.72%; BrDU, % of positive cells (CCRF-CEM lymphoblasts [13]; 5×IC50, 24 h): 8.89%; BrU, % of positive cells (CCRF-CEM lymphoblasts [14]; 1×IC50, 24 h): 23.92%; BrU, % of positive cells (CCRF-CEM lymphoblasts [14]; 5×IC50, 24 h): 38.94%
